The term IC50 denotes the concentration needed to halve the response being measured. Lower therefore signals greater potency.

The target in this test is USP7 (Homo sapiens, UniProt Q93009). Description: USP7 inhibitory potency (IC50). Type of test: biochemical. On the procedure:
Activity for compounds described herein is provided in Table 2, wherein potency levels are provided as follows: (Potency: USP7 IC50: A<0.01 μM; B=0.01-0.1 μM; C=>0.1 μM.

USP7, sequence (Q93009 whole entry): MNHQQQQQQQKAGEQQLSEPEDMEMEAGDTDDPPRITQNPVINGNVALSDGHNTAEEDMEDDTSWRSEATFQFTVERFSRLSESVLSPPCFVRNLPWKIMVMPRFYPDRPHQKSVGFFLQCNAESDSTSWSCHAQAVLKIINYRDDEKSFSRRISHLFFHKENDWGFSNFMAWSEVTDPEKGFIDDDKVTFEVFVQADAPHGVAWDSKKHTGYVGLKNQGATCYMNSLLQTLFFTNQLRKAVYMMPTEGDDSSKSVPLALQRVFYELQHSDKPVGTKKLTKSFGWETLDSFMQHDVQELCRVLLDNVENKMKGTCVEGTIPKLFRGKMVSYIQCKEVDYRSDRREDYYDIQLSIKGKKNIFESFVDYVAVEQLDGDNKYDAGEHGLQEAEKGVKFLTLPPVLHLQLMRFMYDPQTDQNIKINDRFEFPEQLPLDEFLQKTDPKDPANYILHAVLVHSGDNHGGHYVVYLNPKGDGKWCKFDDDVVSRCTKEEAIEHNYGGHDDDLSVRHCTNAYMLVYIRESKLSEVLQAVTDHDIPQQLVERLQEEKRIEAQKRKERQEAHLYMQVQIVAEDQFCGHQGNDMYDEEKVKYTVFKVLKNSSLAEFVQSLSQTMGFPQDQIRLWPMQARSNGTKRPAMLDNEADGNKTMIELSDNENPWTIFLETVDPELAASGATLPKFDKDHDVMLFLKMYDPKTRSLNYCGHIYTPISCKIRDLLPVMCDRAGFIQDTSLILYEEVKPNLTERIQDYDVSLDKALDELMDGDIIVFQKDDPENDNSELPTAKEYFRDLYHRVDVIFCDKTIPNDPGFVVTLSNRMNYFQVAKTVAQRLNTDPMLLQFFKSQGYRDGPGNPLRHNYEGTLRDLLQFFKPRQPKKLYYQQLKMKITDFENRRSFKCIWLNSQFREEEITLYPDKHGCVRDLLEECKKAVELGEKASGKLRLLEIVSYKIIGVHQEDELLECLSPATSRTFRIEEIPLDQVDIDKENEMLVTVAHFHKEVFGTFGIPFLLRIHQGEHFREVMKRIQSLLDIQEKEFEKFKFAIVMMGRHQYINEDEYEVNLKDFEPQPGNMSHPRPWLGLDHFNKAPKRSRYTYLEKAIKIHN

For `CCN1CCN(Cc2c(C)cc(Cl)cc2-c2ccnc3cc(CN4C(=O)CCC4=O)sc23)[C@@H](C)C1` [Example 11, (S)-1-((7-(5-chloro-2-((4-ethyl-2-methylpiperazin-1-yl)methyl)-3-methylphenyl)thieno[3,2-b]pyridin-2-yl)methyl)pyrrolidine-2,5-dione], the IC50 was under 10 nM.

The compound `Cc1cc(Cl)cc(-c2ncnc3cc(CN4C(=O)C5CC5C4=O)sc23)c1CC1CNC(C)(C)CO1` (stereo not shown) [Example 158, 3-((4-(5-chloro-2-((5,5-dimethylmorpholin-2-yl)methyl)-3-methylphenyl)thieno[3,2-d]pyrimidin-6-yl)methyl)-3-azabicyclo[3.1.0]hexane-2,4-dione] showed an IC50 of 10 to 100 nM.

`Cc1cc(Cl)cc(-c2ccnc3cc(CN4C(=O)C5CC5C4=O)sc23)c1CC1CNCCO1` (stereo not shown) [Example 102, 3-((7-(5-chloro-3-methyl-2-(morpholin-2-ylmethyl)phenyl)thieno[3,2-b]pyridin-2-yl)methyl)-3-azabicyclo[3.1.0]hexane-2,4-dione]: the IC50 was under 10 nM.

As for `Cc1cc(Cl)cc(-c2ncnc3cc(CN4C(=O)CCN(CC(F)F)C4=O)sc23)c1C[C@@H]1CNCC(C)(C)O1` [Example 240, (R)-3-((4-(5-chloro-2-((6,6-dimethylmorpholin-2-yl)methyl)-3-methylphenyl)thieno[3,2-d]pyrimidin-6-yl)methyl)-1-(2,2-difluoroethyl)dihydropyrimidine-2,4(1H,3H)-dione], the IC50 was under 10 nM.

Regarding `Cc1cc(Cl)cc(-c2ncnc3cc(CN4C(=O)CC[C@@H]4C(F)F)sc23)c1C[C@@H]1CNCC(C)(C)O1` [Example 242, (R)-1-((4-(5-chloro-2-(((R)-6,6-dimethylmorpholin-2-yl)methyl)-3-methylphenyl)thieno[3,2-d]pyrimidin-6-yl)methyl)-5-(difluoromethyl)pyrrolidin-2-one], the IC50 was under 10 nM.

For the compound `Cc1cc(Cl)cc(-c2ccnc3cc(CN4C(=O)C5C(C4=O)C5(C)C)sc23)c1CN1CCN(C)C[C@@H]1C` (stereo partly drawn) [Example 23, 3-((7-(5-chloro-2-(((S)-2,4-dimethylpiperazin-1-yl)methyl)-3-methylphenyl)thieno[3,2-b]pyridin-2-yl)methyl)-6,6-dimethyl-3-azabicyclo[3.1.0]hexane-2,4-dione], the IC50 was under 10 nM.

`Cc1cc(Cl)cc(-c2ncnc3cc(CN4CCCCC4=O)sc23)c1CN1C[C@@H](C)NC[C@@H]1C` [Example 82, 1-((4-(5-chloro-2-(((2S,5R)-2,5-dimethylpiperazin-1-yl)methyl)-3-methylphenyl)thieno[3,2-d]pyrimidin-6-yl)methyl)piperidin-2-one]: the IC50 is over 100 nM.

`Cc1cc(Cl)cc(-c2ncnc3cc(CN4C(=O)CCC4=O)sc23)c1CC1CNCC2(COC2)O1` (stereo not shown) [Example 237, 1-((4-(2-((2,5-dioxa-8-azaspiro[3.5]nonan-6-yl)methyl)-5-chloro-3-methylphenyl)thieno[3,2-d]pyrimidin-6-yl)methyl)pyrrolidine-2,5-dione] gave an IC50 of under 10 nM.

For `Cc1cc(Cl)cc(-c2ncnc3cc(CN4C(=O)CCC4(C)C#N)sc23)c1CC1CNCC(C)(C)O1` (stereo not shown) [Example 195, 1-((4-(5-chloro-2-((6,6-dimethylmorpholin-2-yl)methyl)-3-methylphenyl)thieno[3,2-d]pyrimidin-6-yl)methyl)-2-methyl-5-oxopyrrolidine-2-carbonitrile], the IC50 was 10 to 100 nM.

The compound `Cc1cc(Cl)cc(-c2ccnc3cc(CN4C(=O)CCC4=O)sc23)c1CN1[C@@H](C)CNC[C@@H]1C` [Example 14, 1-((7-(5-chloro-2-(((2S,6S)-2,6-dimethylpiperazin-1-yl)methyl)-3-methylphenyl)thieno[3,2-b]pyridin-2-yl)methyl)pyrrolidine-2,5-dione] showed an IC50 of under 10 nM.

For the compound `Cc1cc(Cl)cc(-c2ccnc3c(F)c(CN4C(=O)C5CC5C4=O)sc23)c1C[C@@H]1CNCCO1` (stereo partly drawn) [Example 125, 3-((7-(5-chloro-3-methyl-2-(((R)-morpholin-2-yl)methyl)phenyl)-3-fluorothieno[3,2-b]pyridin-2-yl)methyl)-3-azabicyclo[3.1.0]hexane-2,4-dione], the IC50 was under 10 nM.

`Cc1cc(Cl)cc(-c2ncnc3cc(CN4C(=O)C5C(C4=O)C5(C)C)sc23)c1C[C@@H]1CNCCO1` (stereo partly drawn) [Example 196, 3-((4-(5-chloro-3-methyl-2-(((R)-morpholin-2-yl)methyl)phenyl)thieno[3,2-d]pyrimidin-6-yl)methyl)-6,6-dimethyl-3-azabicyclo[3.1.0]hexane-2,4-dione] registered a concentration for half-maximal inhibition (IC50) of under 10 nM.

Consider `Cc1cc(Cl)cc(-c2ccnc3cc(CN4C(=O)CCC4=O)sc23)c1CN1CCN(C)C[C@@H]1C` [Example 3, (S)-1-((7-(5-chloro-2-((2,4-dimethylpiperazin-1 yl)methyl)-3-methylphenyl)thieno[3,2-b]pyridin-2-yl)methyl)pyrrolidine-2,5-dione], for which the IC50 was under 10 nM.

Regarding `Cc1cc(Cl)cc(-c2ccnc3cc(CN4C(=O)C5CC5C4=O)sc23)c1CC1CNCC(C)(C)O1` (stereo not shown) [Example 120, 3-((7-(5-chloro-2-((6,6-dimethylmorpholin-2-yl)methyl)-3-methylphenyl)thieno[3,2-b]pyridin-2-yl)methyl)-3-azabicyclo[3.1.0]hexane-2,4-dione], the IC50 is under 10 nM.

The compound `Cc1cc(Cl)cc(-c2ccnc3cc(CN4C(=O)C5CC5C4=O)sc23)c1C[C@H]1CNCC(C)(C)O1` (stereo partly drawn) [Example 134, 3-((7-(5-chloro-2-(((S)-6,6-dimethylmorpholin-2-yl)methyl)-3-methylphenyl)thieno[3,2-b]pyridin-2-yl)methyl)-3-azabicyclo[3.1.0]hexane-2,4-dione] yielded an IC50 of 10 to 100 nM.

`Cc1cc(Cl)cc(-c2ccnc3cc(CN4C(=O)CCC4=O)sc23)c1CN1CCN(CCO)C[C@@H]1C` [Example 13, (S)-1-((7-(5-chloro-2-((4-(2-hydroxyethyl)-2-methylpiperazin-1-yl)methyl)-3-methylphenyl)thieno[3,2-b]pyridin-2-yl)methyl)pyrrolidine-2,5-dione]: the IC50 was under 10 nM.

The compound `Cc1cc(Cl)cc(-c2ccnc3cc(CN4C(=O)CCC4=O)sc23)c1CN1[C@H](C)CNC[C@@H]1C` [Example 22, 1-((7-(5-chloro-2-(((2R,6S)-2,6-dimethylpiperazin-1-yl)methyl)-3-methylphenyl)thieno[3,2-b]pyridin-2-yl)methyl)pyrrolidine-2,5-dione] displayed an IC50 of under 10 nM.

In turn, `Cc1cc(Cl)cc(-c2ncnc3cc(CN4C(=O)C5C(C4=O)C5(C)C)sc23)c1C[C@@H]1CN(C(=O)C(F)(F)F)CCO1` (stereo partly drawn) [Example 201, 3-((4-(5-chloro-3-methyl-2-(((R)-4-(2,2,2-trifluoroacetyl)morpholin-2-yl)methyl)phenyl)thieno[3,2-d]pyrimidin-6-yl)methyl)-6,6-dimethyl-3-azabicyclo[3.1.0]hexane-2,4-dione] displayed an IC50 of 10 to 100 nM.

Compound `Cc1cc(Cl)cc(-c2ccnc3cc(CN4C(=O)C5CC5C4=O)sc23)c1CC1CNCCS1(=O)=O` (stereo not shown) [Example 100, 3-((7-(5-chloro-2-((1,1-dioxidothiomorpholin-2-yl)methyl)-3-methylphenyl)thieno[3,2-b]pyridin-2-yl)methyl)-3-azabicyclo[3.1.0]hexane-2,4-dione] displayed an IC50 of 10 to 100 nM.

The values above are taken from patent US11084829B2, “Ubiquitin-specific-processing protease 7 (USP7) modulators and uses thereof” (RAPT THERAPEUTICS, INC., priority 2018, dated 2021).
